In BigSolDB 2.1:

COc1cc2nccc(Oc3ccc(NC(=O)C4(C(=O)Nc5ccc(F)cc5)CC4)cc3)c2cc1OC.O=C(O)C[C@H](O)C(=O)O
solubility (mole fraction)
Conditions | 298.2 K | 303.2 K | 308.2 K | 313.2 K | 318.2 K
in DMSO | 0.0332 | 0.0353 | 0.0376 | 0.0404 | 0.0435
in ethanol | 0.000391 | 0.000507 | 0.000724 | 0.000977 | 0.00127
in ethyl acetate | 8.8e-05 | 0.000135 | 0.000187 | 0.000277 | 0.000415
in ethylene glycol | 0.000426 | 0.000605 | 0.000839 | 0.00109 | 0.00138
in isopropanol | 0.000529 | 0.00068 | 0.000944 | 0.0013 | 0.00169
in methanol | 0.000169 | 0.000262 | 0.000372 | 0.000503 | 0.000705
in n-butanol | 0.000675 | 0.000932 | 0.00128 | 0.00166 | 0.00215
in propylene glycol | 0.000715 | 0.00098 | 0.00131 | 0.00179 | 0.00238
in sec-butanol | 0.000687 | 0.000943 | 0.00135 | 0.00173 | 0.00221
in transcutol | 0.00179 | 0.00231 | 0.00315 | 0.0042 | 0.00545
in water | 2.27e-07 | 3.4e-07 | 4.82e-07 | 6.52e-07 | 8.5e-07

Conditions | solubility (mole fraction)
in PEG-400, 298.2 K | 0.00354
in PEG-400, 303.2 K | 0.00538
in PEG-400, 308.2 K | 0.00749
in PEG-400, 313.2 K | 0.0105
in PEG-400, 318.2 K | 0.0142
